{"source": "patent US20240218022A1", "about": "“ANTI-VISTA MACROCYCLIC PEPTIDES AND COMPOSITIONS” (BRISTOL-MYERS SQUIBB COMPANY, priority 2022, published 2024)", "target": "T1, mouse VISTA (mVISTA) (Mus musculus, UniProt Q9D659)", "T1 construct": "expressed in transfected cells; host or cells: Human embryonic kidney 293T cells", "T1 sequence (Q9D659 33-308)": "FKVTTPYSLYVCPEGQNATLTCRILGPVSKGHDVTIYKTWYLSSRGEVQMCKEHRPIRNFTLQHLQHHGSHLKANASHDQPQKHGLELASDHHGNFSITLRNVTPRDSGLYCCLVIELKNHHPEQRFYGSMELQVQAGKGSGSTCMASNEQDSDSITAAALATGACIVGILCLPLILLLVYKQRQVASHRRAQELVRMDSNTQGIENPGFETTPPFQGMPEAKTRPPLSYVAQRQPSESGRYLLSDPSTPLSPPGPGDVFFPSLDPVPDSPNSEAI", "experiment": "Cell-Based Binding High-Content Assay For mVISTA (HC CBA mVISTA)", "conditions": "cell-based binding high-content assay", "outline": "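Competition of compound with a biotinylated peptide (final 2 nM, 30 min at RT) for binding to mVISTA on 293T cells, run under no-wash or wash (1 h compound preincubation then removal) formats. Readout by Alexa 647–streptavidin imaging on a high-content platform; four-parameter logistic fit gave IC50.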", "note": "pIC50: −log10 of the molar value. Read-outs that look alike come from different tables or passages of the source. Starred links: 1 amine or outer side, 2 acyl side, 3 side chain; linkers in the order of their positions; H or OH if unused. Positions of bridges follow the written chain, without caps; N, C: chain ends. Non-standard residues stand in square brackets, D forms with d. Residues, ends and D or L forms follow the SMILES beside them. Tyr(3-Cl) = N[C@@H](Cc1ccc(O)c(Cl)c1)C(=O)O; Phe(3-Me) = Cc1cccc(C[C@H](N)C(=O)O)c1; γGlu = O=C(O)[C@H](CCC(=O)[*:2])N[*:1]; 2Nal = N[C@@H](Cc1ccc2ccccc2c1)C(=O)O; βAsp = O=C(O)[C@H](CC(=O)[*:2])N[*:1]; Tic = O=C(O)[C@@H]1Cc2ccccc2CN1; Cit = NC(=O)NCCC[C@H](N)C(=O)O; NMeL = CN[C@@H](CC(C)C)C(=O)O; Ahp(2) = CCCCC[C@H](N)C(=O)O; NMeNle = CCCC[C@H](NC)C(=O)O; Tle = CC(C)(C)[C@H](N)C(=O)O; NHexGly = CCCCCCNCC(=O)O; Nle = CCCC[C@H](N)C(=O)O; Orn = NCCC[C@H](N)C(=O)O; Aun = NCCCCCCCCCCC(=O)O; Dab = NCC[C@H](N)C(=O)O; AEEA = NCCOCCOCC(=O)O"}
{"compound": "CCCCCCN1CC(=O)N[C@@H](Cc2ccc(O)cc2)C(=O)N[C@@H](C(C)C)C(=O)NCC(=O)N[C@@H](CCCNC(N)=O)C(=O)N[C@@H](CC(C)C)C(=O)N[C@@H](CCCCC)C(=O)N2CCC[C@H]2C(=O)N[C@@H](C(C)C)C(=O)N[C@@H](CC(=O)O)C(=O)N[C@H](C(=O)NCCOCCOCC(=O)N[C@@H](CC(=O)O)C(=O)NCCOCCOCC(=O)NCCCCCCCCCCC(=O)O)CSCC(=O)N[C@@H](Cc2ccc3ccccc3c2)C(=O)N[C@@H](Cc2ccc(O)cc2)C(=O)N[C@@H](CC(=O)O)C1=O", "note": "[compound 2308] ({CH2CO}-[2Nal]YD[NHexGly]YVG[Cit]L[Ahp(2)]PVDC[AEEA]D[AEEA][Aun]-OH; thioether N-14)", "values": [{"measurement": "pIC50", "setting": "read-out: HC CBA miPrISTA IC50", "result": 7.84}]}
{"compound": "CCCCCCN1CC(=O)N[C@@H](Cc2ccc(O)cc2)C(=O)N[C@@H](CCCC)C(=O)N[C@@H](CC(N)=O)C(=O)N[C@@H](CCCNC(=N)N)C(=O)N(C)[C@@H](CC(C)C)C(=O)N[C@@H](CCCCC)C(=O)N2CCC[C@H]2C(=O)N[C@@H](C(C)C)C(=O)N[C@@H](CO)C(=O)N[C@H](C(=O)NCCOCCOCC(=O)N[C@@H](CC(=O)O)C(=O)NCCOCCOCC(=O)NCCCCCCCCCCC(=O)O)CSCC(=O)N[C@@H](Cc2ccc3ccccc3c2)C(=O)N[C@@H](Cc2ccc(O)cc2)C(=O)N[C@@H](CC(=O)O)C1=O", "note": "[compound 2313] ({CH2CO}-[2Nal]YD[NHexGly]Y[Nle]NR[NMeL][Ahp(2)]PVSC[AEEA]D[AEEA][Aun]-OH; thioether N-14)", "values": [{"measurement": "pIC50", "setting": "read-out: HC CBA miPrISTA IC50", "result": 7.55}]}
{"compound": "CCCCCCN1CC(=O)N[C@@H](Cc2ccc(O)cc2)C(=O)N[C@@H](CCCC)C(=O)N[C@@H](CC(N)=O)C(=O)N[C@@H](CCCNC(N)=O)C(=O)N2Cc3ccccc3C[C@H]2C(=O)N[C@@H](CCCCC)C(=O)N2CCC[C@H]2C(=O)N[C@@H](C(C)C)C(=O)N[C@@H](CO)C(=O)N[C@H](C(=O)NCCOCCOCC(=O)N[C@@H](CC(=O)O)C(=O)NCCOCCOCC(=O)NCCCCCCCCCCC(=O)O)CSCC(=O)N[C@@H](Cc2ccc3ccccc3c2)C(=O)N[C@@H](Cc2ccc(O)cc2)C(=O)N[C@@H](CC(=O)O)C1=O", "note": "[compound 2315] ({CH2CO}-[2Nal]YD[NHexGly]Y[Nle]N[Cit][Tic][Ahp(2)]PVSC[AEEA]D[AEEA][Aun]-OH; thioether N-14)", "values": [{"measurement": "pIC50", "setting": "read-out: HC CBA miPrISTA IC50", "result": 7.74}]}
{"compound": "CCCCCCN1CC(=O)N[C@@H](Cc2ccc(O)cc2)C(=O)N[C@@H](CCCC)C(=O)N[C@@H](CC(N)=O)C(=O)N[C@@H](CCCNC(N)=O)C(=O)N(C)[C@@H](CCCC)C(=O)N[C@@H](CCCCC)C(=O)N2CCC[C@H]2C(=O)N[C@@H](C(C)C)C(=O)N[C@@H](CO)C(=O)N[C@H](C(=O)NCCOCCOCC(=O)N[C@@H](CC(=O)O)C(=O)NCCOCCOCC(=O)NCCCCCCCCCCC(=O)O)CSCC(=O)N[C@@H](Cc2ccc3ccccc3c2)C(=O)N[C@@H](Cc2ccc(O)cc2)C(=O)N[C@@H](CC(=O)O)C1=O", "note": "[compound 2319] ({CH2CO}-[2Nal]YD[NHexGly]Y[Nle]N[Cit][NMeNle][Ahp(2)]PVSC[AEEA]D[AEEA][Aun]-OH; thioether N-14)", "values": [{"measurement": "pIC50", "setting": "read-out: HC CBA miPrISTA IC50", "result": 7.60}]}
{"compound": "CCCCCCN1CC(=O)N[C@@H](Cc2ccc(O)cc2)C(=O)N[C@@H](CC(C)C)C(=O)N[C@@H](CC(N)=O)C(=O)N[C@@H](CCCNC(=N)N)C(=O)N(C)[C@@H](CCCC)C(=O)N[C@@H](CCCCC)C(=O)N2CCC[C@H]2C(=O)N[C@@H](C(C)(C)C)C(=O)N[C@@H](CC(=O)O)C(=O)N[C@H](C(=O)N[C@@H](CC(=O)NCCOCCOCC(=O)N[C@@H](CCN)C(=O)NCCOCCOCC(=O)NCCCCCCCCCCC(=O)O)C(=O)O)CSCC(=O)N[C@@H](Cc2ccccc2)C(=O)N[C@@H](Cc2ccc(O)cc2)C(=O)N[C@@H](CC(=O)O)C1=O", "note": "[compound 2329] ({CH2CO}-FYD[NHexGly]YLNR[NMeNle][Ahp(2)]P[Tle]DC[βAsp][AEEA][Dab][AEEA][Aun]-OH; thioether N-14)", "values": [{"measurement": "pIC50", "setting": "read-out: HC CBA mVISTA IC50", "result": 7.65}]}
{"compound": "CCCCCCN1CC(=O)N[C@@H](Cc2ccc(O)cc2)C(=O)N[C@@H](CCCC)C(=O)N[C@@H](CC(N)=O)C(=O)N[C@@H](CCCNC(=N)N)C(=O)N(C)[C@@H](CCCC)C(=O)N[C@@H](CCCCC)C(=O)N2CCC[C@H]2C(=O)N[C@@H](C(C)(C)C)C(=O)N[C@@H](CO)C(=O)N[C@H](C(=O)NCC(=O)NCCOCCOCC(=O)N[C@@H](CCC(=O)NCCOCCOCC(=O)NCCCCCCCCCCC(=O)O)C(=O)O)CSCC(=O)N[C@@H](Cc2ccccc2)C(=O)N[C@@H](Cc2cccc(C)c2)C(=O)N[C@@H](CC(=O)O)C1=O", "note": "[compound 2330] ({CH2CO}-F[Phe(3-Me)]D[NHexGly]Y[Nle]NR[NMeNle][Ahp(2)]P[Tle]SCG[AEEA][γGlu][AEEA][Aun]-OH; thioether N-14)", "values": [{"measurement": "pIC50", "setting": "read-out: HC CBA mVISTA IC50", "result": 7.74}]}
{"compound": "CCCCCCN1CC(=O)N[C@@H](Cc2ccc(O)cc2)C(=O)N[C@@H](CCCC)C(=O)N[C@@H](CC(N)=O)C(=O)N[C@@H](CCCNC(=N)N)C(=O)N(C)[C@@H](CCCC)C(=O)N[C@@H](CCCCC)C(=O)N2CCC[C@H]2C(=O)N[C@@H](C(C)(C)C)C(=O)N[C@@H](CO)C(=O)N[C@H](C(=O)NCC(=O)NCCOCCOCC(=O)N[C@@H](CCC(=O)NCCOCCOCC(=O)NCCCCCCCCCCC(=O)O)C(=O)O)CSCC(=O)N[C@@H](Cc2ccc3ccccc3c2)C(=O)N[C@@H](Cc2ccc(O)cc2)C(=O)N[C@@H](CC(=O)O)C1=O", "note": "[compound 2333] ({CH2CO}-[2Nal]YD[NHexGly]Y[Nle]NR[NMeNle][Ahp(2)]P[Tle]SCG[AEEA][γGlu][AEEA][Aun]-OH; thioether N-14)", "values": [{"measurement": "pIC50", "setting": "read-out: HC CBA mVISTA IC50", "result": 7.33}]}
{"compound": "CCCCCCN1CC(=O)N[C@@H](Cc2ccc(O)c(Cl)c2)C(=O)N[C@@H](CC(C)C)C(=O)N[C@@H](CC(N)=O)C(=O)N[C@@H](CCCN)C(=O)N(C)[C@@H](CCCC)C(=O)N[C@@H](CCCCC)C(=O)N2CCC[C@H]2C(=O)N[C@@H](C(C)(C)C)C(=O)N[C@@H](CO)C(=O)N[C@H](C(=O)N[C@@H](CC(=O)NCCOCCOCC(=O)N[C@@H](CC(=O)O)C(=O)NCCOCCOCC(=O)NCCCCCCCCCCC(=O)O)C(=O)O)CSCC(=O)N[C@@H](Cc2ccccc2)C(=O)N[C@@H](Cc2ccc(O)cc2)C(=O)N[C@@H](CC(=O)O)C1=O", "note": "[compound 2336] ({CH2CO}-FYD[NHexGly][Tyr(3-Cl)]LN[Orn][NMeNle][Ahp(2)]P[Tle]SC[βAsp][AEEA]D[AEEA][Aun]-OH; thioether N-14)", "values": [{"measurement": "pIC50", "setting": "read-out: HC CBA mVISTA IC50", "result": 7.62}]}
